Measured values from paper PMC6437697 (Journal of Medicinal Chemistry, 2019).

Legend:
Test in all cases: KINOMEscan
Format in all cases: binding
Conditions in all cases: read-out: % control activity remaining
PAK6 = molecular target: T1, PAK6 (Homo sapiens, UniProt Q9NQU5)
T1 construct: purchased Eurofins DiscoverX KINOMEscan

SRPK3 = molecular target: T2, SRPK3 (Homo sapiens, UniProt Q9UPE1)
T2 construct: purchased Eurofins DiscoverX KINOMEscan

AMPK-alpha2 = molecular target: T3, AMPK-alpha2 (Homo sapiens, UniProt P54646)
T3 construct: purchased Eurofins DiscoverX KINOMEscan
T3 sequence (P54646 whole entry): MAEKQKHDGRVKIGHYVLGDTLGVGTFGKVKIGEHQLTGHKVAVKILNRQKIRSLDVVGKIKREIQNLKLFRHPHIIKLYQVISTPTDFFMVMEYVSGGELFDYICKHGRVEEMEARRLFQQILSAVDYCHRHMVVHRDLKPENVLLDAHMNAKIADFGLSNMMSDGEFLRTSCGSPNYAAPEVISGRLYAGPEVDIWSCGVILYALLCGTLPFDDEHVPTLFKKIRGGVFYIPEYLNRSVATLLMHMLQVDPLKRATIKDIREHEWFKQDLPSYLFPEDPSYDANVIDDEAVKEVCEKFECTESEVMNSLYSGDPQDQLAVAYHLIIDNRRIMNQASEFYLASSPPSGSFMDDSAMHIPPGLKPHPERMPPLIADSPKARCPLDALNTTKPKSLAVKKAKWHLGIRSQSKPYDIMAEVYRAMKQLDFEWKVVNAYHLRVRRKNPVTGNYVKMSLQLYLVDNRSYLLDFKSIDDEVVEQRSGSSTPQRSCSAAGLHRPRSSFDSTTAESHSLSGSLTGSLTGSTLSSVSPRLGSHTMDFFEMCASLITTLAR

ABL1-phosphorylated = molecular target: T4, ABL1-phosphorylated (Homo sapiens, UniProt P00519)
T4 construct: purchased Eurofins DiscoverX KINOMEscan
T4 sequence (P00519 whole entry): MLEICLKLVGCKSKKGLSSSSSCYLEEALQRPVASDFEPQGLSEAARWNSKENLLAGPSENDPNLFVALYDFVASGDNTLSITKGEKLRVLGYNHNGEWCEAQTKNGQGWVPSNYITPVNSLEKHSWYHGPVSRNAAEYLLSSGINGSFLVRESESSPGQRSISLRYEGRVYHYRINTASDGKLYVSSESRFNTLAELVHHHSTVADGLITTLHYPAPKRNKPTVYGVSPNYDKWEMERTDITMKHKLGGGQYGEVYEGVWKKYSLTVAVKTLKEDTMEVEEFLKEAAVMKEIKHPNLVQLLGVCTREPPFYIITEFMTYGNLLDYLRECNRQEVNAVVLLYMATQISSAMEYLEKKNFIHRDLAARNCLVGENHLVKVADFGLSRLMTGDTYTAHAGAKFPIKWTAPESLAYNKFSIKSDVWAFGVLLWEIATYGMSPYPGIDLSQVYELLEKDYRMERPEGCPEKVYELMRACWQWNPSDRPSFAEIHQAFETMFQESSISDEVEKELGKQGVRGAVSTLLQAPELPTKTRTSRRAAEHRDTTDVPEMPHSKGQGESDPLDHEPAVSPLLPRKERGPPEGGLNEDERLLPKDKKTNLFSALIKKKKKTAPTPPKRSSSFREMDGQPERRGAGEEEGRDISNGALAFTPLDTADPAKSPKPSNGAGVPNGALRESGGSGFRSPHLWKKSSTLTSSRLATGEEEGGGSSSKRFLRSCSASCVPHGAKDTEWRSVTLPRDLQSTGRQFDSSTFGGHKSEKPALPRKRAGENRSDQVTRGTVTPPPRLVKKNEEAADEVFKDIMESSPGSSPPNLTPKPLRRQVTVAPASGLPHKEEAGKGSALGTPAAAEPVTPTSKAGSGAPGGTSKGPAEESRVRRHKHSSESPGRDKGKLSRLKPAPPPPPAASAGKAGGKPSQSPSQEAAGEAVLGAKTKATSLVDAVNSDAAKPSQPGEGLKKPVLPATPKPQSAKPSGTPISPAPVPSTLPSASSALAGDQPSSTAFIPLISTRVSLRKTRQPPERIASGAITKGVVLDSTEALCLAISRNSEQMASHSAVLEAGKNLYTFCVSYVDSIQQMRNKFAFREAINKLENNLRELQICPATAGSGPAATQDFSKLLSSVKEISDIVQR

CSF1R = molecular target: T5, CSF1R (Homo sapiens, UniProt P07333)
T5 construct: purchased Eurofins DiscoverX KINOMEscan
T5 sequence (P07333 20-972): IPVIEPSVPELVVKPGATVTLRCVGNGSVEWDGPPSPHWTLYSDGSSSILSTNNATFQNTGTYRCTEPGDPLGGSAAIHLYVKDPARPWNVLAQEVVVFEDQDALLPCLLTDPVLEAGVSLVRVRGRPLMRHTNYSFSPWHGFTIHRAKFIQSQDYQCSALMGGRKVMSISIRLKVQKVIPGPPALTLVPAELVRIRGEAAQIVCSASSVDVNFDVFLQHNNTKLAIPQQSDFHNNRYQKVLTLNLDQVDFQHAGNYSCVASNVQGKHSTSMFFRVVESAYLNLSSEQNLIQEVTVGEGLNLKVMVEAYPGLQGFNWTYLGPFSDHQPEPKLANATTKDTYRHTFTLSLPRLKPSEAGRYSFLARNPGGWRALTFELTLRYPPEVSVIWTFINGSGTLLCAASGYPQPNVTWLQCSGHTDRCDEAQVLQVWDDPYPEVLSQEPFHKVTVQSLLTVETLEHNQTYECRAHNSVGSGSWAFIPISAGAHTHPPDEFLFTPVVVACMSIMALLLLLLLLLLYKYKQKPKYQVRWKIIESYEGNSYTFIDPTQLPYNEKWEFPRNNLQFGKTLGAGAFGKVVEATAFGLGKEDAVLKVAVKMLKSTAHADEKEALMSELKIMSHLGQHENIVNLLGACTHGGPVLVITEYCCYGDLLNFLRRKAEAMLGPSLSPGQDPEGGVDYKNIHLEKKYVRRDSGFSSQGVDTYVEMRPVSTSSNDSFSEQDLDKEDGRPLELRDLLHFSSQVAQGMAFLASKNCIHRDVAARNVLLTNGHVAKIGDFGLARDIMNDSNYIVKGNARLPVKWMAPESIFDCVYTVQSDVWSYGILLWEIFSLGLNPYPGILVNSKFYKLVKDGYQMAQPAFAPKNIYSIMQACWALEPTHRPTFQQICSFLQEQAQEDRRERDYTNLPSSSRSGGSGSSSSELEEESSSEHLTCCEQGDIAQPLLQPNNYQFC

[1] = molecular target: T6, EGFR(L747-S752del, P753S) (Homo sapiens, UniProt P00533, DEL747-752/P753S)
T6 construct: purchased Eurofins DiscoverX KINOMEscan
T6 sequence (P00533 with tags, fused parts or gaps DEL747-752/P753S limits assumed): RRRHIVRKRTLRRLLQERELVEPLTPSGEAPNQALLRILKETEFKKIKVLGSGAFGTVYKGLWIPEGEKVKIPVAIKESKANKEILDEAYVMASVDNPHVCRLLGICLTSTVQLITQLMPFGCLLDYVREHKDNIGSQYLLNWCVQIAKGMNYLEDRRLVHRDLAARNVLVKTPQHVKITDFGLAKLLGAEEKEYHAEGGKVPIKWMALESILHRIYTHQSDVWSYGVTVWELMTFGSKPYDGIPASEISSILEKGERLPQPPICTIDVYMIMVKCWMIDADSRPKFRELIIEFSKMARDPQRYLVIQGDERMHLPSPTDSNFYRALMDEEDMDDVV

YSK1 = molecular target: T7, YSK1 (Homo sapiens, UniProt O00506)
T7 construct: purchased Eurofins DiscoverX KINOMEscan
T7 sequence (O00506 whole entry): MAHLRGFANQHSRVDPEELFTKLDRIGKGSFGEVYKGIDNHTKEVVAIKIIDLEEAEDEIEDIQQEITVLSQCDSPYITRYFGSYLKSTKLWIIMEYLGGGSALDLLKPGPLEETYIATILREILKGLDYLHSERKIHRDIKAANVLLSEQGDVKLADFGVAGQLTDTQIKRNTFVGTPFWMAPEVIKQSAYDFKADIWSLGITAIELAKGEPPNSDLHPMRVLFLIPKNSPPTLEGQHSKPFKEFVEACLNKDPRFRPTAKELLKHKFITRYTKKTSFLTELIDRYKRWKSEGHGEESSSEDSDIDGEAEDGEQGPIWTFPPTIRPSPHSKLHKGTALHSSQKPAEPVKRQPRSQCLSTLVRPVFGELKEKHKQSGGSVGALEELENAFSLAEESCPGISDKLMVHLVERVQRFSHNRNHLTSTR

NEK5 = molecular target: T8, NEK5 (Homo sapiens, UniProt Q6P3R8)
T8 construct: purchased Eurofins DiscoverX KINOMEscan
T8 sequence (Q6P3R8 1-708): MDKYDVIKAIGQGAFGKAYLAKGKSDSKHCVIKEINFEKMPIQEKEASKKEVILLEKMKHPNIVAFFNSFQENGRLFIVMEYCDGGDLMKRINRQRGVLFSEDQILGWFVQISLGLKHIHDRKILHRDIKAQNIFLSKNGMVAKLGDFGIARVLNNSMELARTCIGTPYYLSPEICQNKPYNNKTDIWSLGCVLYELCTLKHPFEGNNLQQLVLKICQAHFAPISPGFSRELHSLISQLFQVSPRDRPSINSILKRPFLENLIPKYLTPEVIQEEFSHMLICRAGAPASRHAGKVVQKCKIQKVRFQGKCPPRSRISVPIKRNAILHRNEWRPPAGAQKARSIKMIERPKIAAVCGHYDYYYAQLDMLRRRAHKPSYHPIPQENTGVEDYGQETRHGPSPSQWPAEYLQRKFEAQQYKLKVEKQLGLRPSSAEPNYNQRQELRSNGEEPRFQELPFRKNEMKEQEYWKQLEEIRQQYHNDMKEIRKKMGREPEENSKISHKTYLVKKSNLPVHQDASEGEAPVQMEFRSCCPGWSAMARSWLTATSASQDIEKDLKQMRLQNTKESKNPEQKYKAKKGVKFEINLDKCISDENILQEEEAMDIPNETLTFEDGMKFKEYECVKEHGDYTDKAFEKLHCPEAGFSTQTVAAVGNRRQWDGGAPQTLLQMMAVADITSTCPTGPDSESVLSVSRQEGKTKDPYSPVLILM

NEK9 = molecular target: T9, NEK9 (Homo sapiens, UniProt Q8TD19)
T9 construct: purchased Eurofins DiscoverX KINOMEscan
T9 sequence (Q8TD19 1-979): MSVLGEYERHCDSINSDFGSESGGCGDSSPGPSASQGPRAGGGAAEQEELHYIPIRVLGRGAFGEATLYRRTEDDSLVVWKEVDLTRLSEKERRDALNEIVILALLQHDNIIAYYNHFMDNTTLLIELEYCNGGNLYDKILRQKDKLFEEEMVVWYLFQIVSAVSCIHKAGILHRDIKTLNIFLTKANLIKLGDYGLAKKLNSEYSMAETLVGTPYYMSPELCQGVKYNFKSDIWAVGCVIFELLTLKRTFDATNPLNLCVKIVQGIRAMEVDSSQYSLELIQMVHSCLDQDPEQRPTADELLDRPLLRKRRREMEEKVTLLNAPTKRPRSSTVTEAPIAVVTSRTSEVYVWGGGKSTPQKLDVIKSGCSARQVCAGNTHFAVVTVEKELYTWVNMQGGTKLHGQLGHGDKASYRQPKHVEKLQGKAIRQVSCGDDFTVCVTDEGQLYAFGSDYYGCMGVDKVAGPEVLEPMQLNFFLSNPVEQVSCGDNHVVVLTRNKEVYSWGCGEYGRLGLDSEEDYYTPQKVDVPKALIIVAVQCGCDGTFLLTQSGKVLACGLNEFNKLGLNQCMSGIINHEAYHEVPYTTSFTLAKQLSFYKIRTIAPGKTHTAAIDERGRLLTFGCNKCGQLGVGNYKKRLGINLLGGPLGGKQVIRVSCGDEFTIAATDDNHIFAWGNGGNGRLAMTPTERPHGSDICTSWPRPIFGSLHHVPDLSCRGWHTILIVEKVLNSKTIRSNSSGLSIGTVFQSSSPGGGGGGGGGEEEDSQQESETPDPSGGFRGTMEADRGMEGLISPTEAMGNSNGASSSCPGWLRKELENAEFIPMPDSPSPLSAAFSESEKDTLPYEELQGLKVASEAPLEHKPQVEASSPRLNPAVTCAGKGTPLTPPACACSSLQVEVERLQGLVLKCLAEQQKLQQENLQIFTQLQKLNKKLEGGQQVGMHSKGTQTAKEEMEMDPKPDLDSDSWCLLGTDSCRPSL

LYN = molecular target: T10, LYN (Homo sapiens, UniProt P07948)
T10 construct: purchased Eurofins DiscoverX KINOMEscan

YANK3 = molecular target: T11, YANK3 (Homo sapiens, UniProt Q86UX6)
T11 construct: purchased Eurofins DiscoverX KINOMEscan
T11 sequence (Q86UX6 whole entry): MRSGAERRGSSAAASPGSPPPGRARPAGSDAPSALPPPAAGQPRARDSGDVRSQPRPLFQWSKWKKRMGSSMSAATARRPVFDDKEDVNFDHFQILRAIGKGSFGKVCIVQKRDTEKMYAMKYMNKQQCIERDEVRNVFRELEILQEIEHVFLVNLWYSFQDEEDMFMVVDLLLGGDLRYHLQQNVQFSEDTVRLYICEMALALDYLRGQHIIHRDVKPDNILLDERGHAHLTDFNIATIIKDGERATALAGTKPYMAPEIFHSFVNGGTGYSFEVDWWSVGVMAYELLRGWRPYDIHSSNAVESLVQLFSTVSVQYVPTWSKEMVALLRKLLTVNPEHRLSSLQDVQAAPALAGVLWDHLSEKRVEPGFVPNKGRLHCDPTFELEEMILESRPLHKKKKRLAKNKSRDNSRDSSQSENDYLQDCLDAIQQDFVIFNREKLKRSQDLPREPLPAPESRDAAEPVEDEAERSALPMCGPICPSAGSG

ERK3 = molecular target: T12, ERK3 (Homo sapiens, UniProt Q16659)
T12 construct: purchased Eurofins DiscoverX KINOMEscan

DYRK1B = molecular target: T13, DYRK1B (Homo sapiens, UniProt Q9Y463)
T13 construct: purchased Eurofins DiscoverX KINOMEscan

T1 sequence (Q9NQU5 whole entry): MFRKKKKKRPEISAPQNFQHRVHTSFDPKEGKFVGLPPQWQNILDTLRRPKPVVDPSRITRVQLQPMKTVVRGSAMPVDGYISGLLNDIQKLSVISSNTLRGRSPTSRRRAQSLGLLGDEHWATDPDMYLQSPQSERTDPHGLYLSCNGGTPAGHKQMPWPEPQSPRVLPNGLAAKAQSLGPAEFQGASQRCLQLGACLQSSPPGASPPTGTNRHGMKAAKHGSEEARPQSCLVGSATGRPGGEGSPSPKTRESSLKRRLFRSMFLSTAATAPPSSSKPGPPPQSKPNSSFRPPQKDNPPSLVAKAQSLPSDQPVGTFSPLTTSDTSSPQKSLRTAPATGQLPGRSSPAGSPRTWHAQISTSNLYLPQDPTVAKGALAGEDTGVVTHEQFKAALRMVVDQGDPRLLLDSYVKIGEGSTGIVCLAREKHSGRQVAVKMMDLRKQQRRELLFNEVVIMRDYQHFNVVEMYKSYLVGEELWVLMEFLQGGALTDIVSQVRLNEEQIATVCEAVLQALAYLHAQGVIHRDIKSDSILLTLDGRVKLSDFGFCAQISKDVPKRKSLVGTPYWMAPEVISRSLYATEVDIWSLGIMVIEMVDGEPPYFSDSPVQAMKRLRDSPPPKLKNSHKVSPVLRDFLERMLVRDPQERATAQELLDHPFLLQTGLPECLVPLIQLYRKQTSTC

Row | Structure (SMILES) | remaining binding at 1 µM (PAK6) [%] | remaining binding at 1 µM (SRPK3) [%] | remaining binding at 1 µM (AMPK-alpha2) [%] | remaining binding at 1 µM (ABL1-phosphorylated) [%] | remaining binding at 1 µM (CSF1R) [%] | remaining binding at 1 µM [1] [%] | remaining binding at 1 µM (YSK1) [%] | remaining binding at 1 µM (NEK5) [%] | remaining binding at 1 µM (NEK9) [%] | remaining binding at 1 µM (LYN) [%] | remaining binding at 1 µM (YANK3) [%] | remaining binding at 1 µM (ERK3) [%] | remaining binding at 1 µM (DYRK1B) [%]
1 | Clc1cc(NCC2CC2)c2ncc(-c3ccc4[nH]ncc4c3)n2n1 [compound 2, 6-Chloro-N-(cyclopropylmethyl)-3-(1H-indazol-5-yl)imidazo[1,2-b]pyridazin-8-amine] | 100 | 49 | 94 | 94 | 79 | 89 | 92 | 93 | 100 | 92 | 100 | 96 | 1
2 | O=C(CN1CCOCC1)N[C@H]1CC[C@H](Nc2cc(Cl)nn3c(-c4ccc5[nH]ncc5c4)cnc23)CC1 [compound 26] | 98 | 66 | 92 | 54 | 21 | 81 | 100 | 86 | 91 | 96 | 99 | 68 | 0.85
3 | CN1CCC(CNc2cc(Cl)nn3c(-c4cc5nc(Nc6ccccc6)[nH]c5cc4F)cnc23)CC1 [compound 31, 6-Chloro-3-(6-fluoro-2-(phenylamino)-1H-benzo[d]imidazol-5-yl)-N-((1-methylpiperidin-4-yl)methyl)imidazo[1,2-b]pyridazin-8-amine] | 97 | 100 | 99 | 81 | 60 | 100 | 99 | 96 | 100 | 95 | 73 | 94 | 63
